Test results as given in US7297460B2, “Radiation curable ink compositions suitable for ink-jet printing” (Agfa-Gevaert, priority 2003, dated 2007).

Assay: Solubility of invention compounds in reactive diluents and oligomers
Assay type: physicochemical

C=C(C)C(=O)OCCC[Si]12O[Si]3(CCCOC(=O)C(=C)C)O[Si]4(CCCOC(=O)C(=C)C)O[Si](CCCOC(=O)C(=C)C)(O1)O[Si]1(CCCOC(=O)C(=C)C)O[Si](CCCOC(=O)C(=C)C)(O2)O[Si](CCCOC(=O)C(=C)C)(O3)O[Si](CCCOC(=O)C(=C)C)(O4)O1 [I.10]
50 wt %: Solubility in CN501 (in CRAYNOR CN501, amino-modified polether acrylate, * footnote: complete solubility after addition of a very small amount of CH2Cl2) | Solubility in TMPTA (in TMPTA = trihydroxymethylpropane triacrylate, * / # footnotes: dissolved after addition of a very small amount of CH2Cl2) | Solubility in TPGDA (in TPGDA = tri(propyleneglycol) diacrylate, * / # footnotes: dissolved after addition of a very small amount of CH2Cl2)
